From ChEMBL document CHEMBL1201862, “PubChem BioAssay data set” (2004)
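Five concentrations, 48 hours, 96-well plates. GI50 = concentration required for 50% inhibition of growth.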 Calls of active or inactive are those of the source. Cut-off read from the data, not from the text of the source: active = GI50 up to about 1.1 µM and inactive = higher.

Tests used:
Assay in all cases: NCI tumour cell line growth inhibition, 48 h
[1] = test system: A549
[2] = test system: ACHN
[3] = test system: CAKI-1
[4] = test system: CCRF-CEM
[5] = test system: DU-145
[6] = test system: HCC 2998
[7] = test system: HCT-15
[8] = test system: LOX IMVI
[9] = test system: M14
[10] = test system: MDA-MB-231
[11] = test system: Malme-3M
[12] = test system: NCI-H460
[13] = test system: OVCAR-4
[14] = test system: RXF 393
[15] = test system: SK-MEL-28
[16] = test system: SK-MEL-5
[17] = test system: SK-OV-3
[18] = test system: SN12C
[19] = test system: SNB-75
[20] = test system: U-251

| Compound | GI50 [1] | GI50 [2] | GI50 [3] | GI50 [4] | GI50 [5] | GI50 [6] | GI50 [7] | GI50 [8] | GI50 [9] | GI50 [10] | GI50 [11] | GI50 [12] | GI50 [13] | GI50 [14] | GI50 [15] | GI50 [16] | GI50 [17] | GI50 [18] | GI50 [19] | GI50 [20] |
| --- | --- | --- | --- | --- | --- | --- | --- | --- | --- | --- | --- | --- | --- | --- | --- | --- | --- | --- | --- | --- |
| C[C@@](Br)(C(=O)O)[C@H](Br)C(=O)O | > 100 µM (inactive) | > 100 µM (inactive) | 55.5 µM (inactive) | > 100 µM (inactive) | > 100 µM (inactive) | > 100 µM (inactive) | > 100 µM | > 100 µM (inactive) | > 100 µM (inactive) | > 100 µM (inactive) | > 100 µM (inactive) | > 100 µM (inactive) | > 100 µM (inactive) | > 100 µM (inactive) | > 100 µM (inactive) | > 100 µM (inactive) | > 100 µM (inactive) | > 100 µM (inactive) | 81.3 µM (inactive) | > 100 µM (inactive) |
| COc1cc(O)c2c(c1)C(O)C(O)CC1OC1C(=O)/C=C/CC(C)OC2=O (stereo not given) | 20.5 µM (inactive) | 3.2 µM (inactive) | 1.08 µM (active) | 1.26 µM (inactive) | 15.7 µM (inactive) | 6.34 µM (inactive) | 2.93 µM | 3.88 µM (inactive) | 0.0933 µM (active) | 3.86 µM (inactive) | 0.029 µM (active) | 7.03 µM (inactive) | 3.27 µM (inactive) | 0.982 µM (active) | 0.194 µM (active) | 1.64 µM (inactive) | 19.7 µM (inactive) | 3.72 µM (inactive) | 6.65 µM (inactive) | 8.18 µM (inactive) |
| CCOC(=O)c1c(C)n(-c2ccc(C)cc2)c(=O)c2ccccc2c(=O)c2c(=O)ccc(=O)c1=2 | 20.2 µM (inactive) | 13.4 µM (inactive) | 14.5 µM (inactive) | 6.34 µM (inactive) | 20 µM (inactive) | 14.3 µM (inactive) | 14.3 µM | 14.7 µM (inactive) | 20.4 µM (inactive) | 16.1 µM (inactive) | 17 µM (inactive) | 19.4 µM (inactive) | 21.4 µM (inactive) | 17.4 µM (inactive) | 12.2 µM (inactive) | 14.7 µM (inactive) | 27 µM (inactive) | 21.7 µM (inactive) | 23.3 µM (inactive) | 19.4 µM (inactive) |
| CN(C)CCOc1ccc2[nH]c(C(=O)N3CC(CCl)c4c3cc(NC(=O)OCc3ccc([N+](=O)[O-])cc3)c3ccccc43)cc2c1 (stereo not given) | 1.24 µM (inactive) | 0.689 µM (active) | 1.18 µM (inactive) | 0.162 µM (active) | 0.552 µM (active) | 8.15 µM (inactive) | 1.55 µM | 1.45 µM (inactive) | 1.63 µM (inactive) | 2.14 µM (inactive) | 1.47 µM (inactive) | 4.05 µM (inactive) | 1.99 µM (inactive) | 1.51 µM (inactive) | 1.64 µM (inactive) | 1.45 µM (inactive) | 1.66 µM (inactive) | 1.5 µM (inactive) | 1.63 µM (inactive) | 1.36 µM (inactive) |
| COc1ccc2c(-c3ccc(OCCN(C)C)cc3)c(Oc3ccc(Cl)cc3)c(=O)oc2c1 | 4.48 µM (inactive) | 7.23 µM (inactive) | 11.1 µM (inactive) | 4.42 µM (inactive) | 13.7 µM (inactive) | 2.83 µM (inactive) | 3.35 µM | 2.19 µM (inactive) | 1.74 µM (inactive) | 6.79 µM (inactive) | 1.74 µM (inactive) | 5.58 µM (inactive) | 20 µM (inactive) | 4.18 µM (inactive) | 1.82 µM (inactive) | 1.64 µM (inactive) | 7.4 µM (inactive) | 20.2 µM (inactive) | 7.19 µM (inactive) | 3.4 µM (inactive) |
| COc1ccc(C(=O)/C=C/c2ccc(OCC(=O)N3CCN(c4ccccc4)CC3)cc2)cc1 | 51.6 µM (inactive) | 63.1 µM (inactive) | 77.8 µM (inactive) | > 35.6 µM (inactive) | > 100 µM (inactive) | > 100 µM (inactive) | 54.7 µM | > 73.6 µM (inactive) | > 100 µM (inactive) | > 27.3 µM (inactive) | > 80.7 µM (inactive) | 82.4 µM (inactive) | 46.9 µM (inactive) | 26.1 µM (inactive) | > 100 µM (inactive) | 59.6 µM (inactive) | 29.1 µM (inactive) | > 65.9 µM (inactive) | 23.7 µM (inactive) | 28.4 µM (inactive) |
| O=[N+]([O-])c1ccccc1S(=O)(=O)c1cc(O)cc2c1NCCC2 | 29.8 µM (inactive) | 14.2 µM (inactive) | 35.2 µM (inactive) | 2.15 µM (inactive) | 20.7 µM (inactive) | 25.5 µM (inactive) | 19.6 µM | 14.2 µM (inactive) | 17 µM (inactive) | 18.2 µM (inactive) | 17.4 µM (inactive) | 23.4 µM (inactive) | 15.3 µM (inactive) | 16.4 µM (inactive) | 18.7 µM (inactive) | 13.9 µM (inactive) | 17.9 µM (inactive) | 21.1 µM (inactive) | 14.5 µM (inactive) | 20.2 µM (inactive) |
| Cn1ccnc1Sc1ccc(/C=N/NC(=O)c2ccccc2[N+](=O)[O-])cc1[N+](=O)[O-] | > 100 µM (inactive) | 70.1 µM (inactive) | 49.8 µM (inactive) | 42.7 µM (inactive) | 66.7 µM (inactive) | 36.7 µM (inactive) | 45.7 µM | 37.3 µM (inactive) | > 100 µM (inactive) | 23.1 µM (inactive) | 54.6 µM (inactive) | 46.5 µM (inactive) | 57.8 µM (inactive) | 52.5 µM (inactive) | > 100 µM (inactive) | 46.1 µM (inactive) | > 100 µM (inactive) | 60.3 µM (inactive) | > 100 µM (inactive) | > 100 µM (inactive) |
| CCNC(=S)N/N=C(/C)c1cccc(/C(C)=N\NC(=S)NCC)n1 | 0.719 µM (active) | 0.562 µM (active) | 1.23 µM (inactive) | 0.303 µM (active) | 1.35 µM (inactive) | 3.56 µM (inactive) | 0.493 µM | 0.373 µM (active) | 1.2 µM (inactive) | 2.32 µM (inactive) | 2.44 µM (inactive) | 0.31 µM (active) | 2.14 µM (inactive) | 3.44 µM (inactive) | 2.38 µM (inactive) | 0.774 µM (active) | 2.63 µM (inactive) | 1.46 µM (inactive) | 14.9 µM (inactive) | 0.553 µM (active) |
| COC(Cc1ccccc1)NC(C)=O (stereo not given) | > 100 µM (inactive) | > 100 µM (inactive) | > 100 µM (inactive) | > 100 µM (inactive) | > 100 µM (inactive) | > 100 µM (inactive) | > 100 µM | > 100 µM (inactive) | > 100 µM (inactive) | > 100 µM (inactive) | > 100 µM (inactive) | > 100 µM (inactive) | > 100 µM (inactive) | > 100 µM (inactive) | > 100 µM (inactive) | > 100 µM (inactive) | > 100 µM (inactive) | > 100 µM (inactive) | > 100 µM (inactive) | > 100 µM (inactive) |
| C/C(=C\c1csc(C)n1)[C@@H]1C[C@@H]2O[C@]2(C)CCC[C@H](C)[C@H](O)[C@@H](C)C(=O)C(C)(C)[C@@H](O)CC(=O)O1 [PATUPILONE] | < 0.0001 µM (active) | < 0.0001 µM (active) | < 0.0001 µM (active) | < 0.0001 µM (active) | < 0.0001 µM (active) | < 0.0001 µM (active) | < 0.0001 µM | < 0.0001 µM (active) | < 0.0001 µM (active) | < 0.0001 µM (active) | 0.01 µM (active) | < 0.0001 µM (active) | 0.000458 µM (active) | < 0.0001 µM (active) | < 0.0001 µM (active) | < 0.0001 µM (active) | < 0.0001 µM (active) | < 0.0001 µM (active) | < 0.0001 µM (active) | < 0.0001 µM (active) |
